Data: article PMC8175350, “Drug repurposing screens identify chemical entities for the development of COVID-19 interventions” (Nature Communications, 2021)
Where “and” joins values, the source holds several entries; their conditions need not be identical. Identical values can stand only once. Like-named read-outs stand apart in the source and are kept apart here.

Key:
[1] = tested on: SARS-CoV-2; format: cell-based; conditions: 72 hpi
[2] = tested on: HeLa-ACE2 cells; assay: Uninfected HeLa-ACE2 24 h live/dead cytotoxicity counter screen; format: cell-based, human; conditions: for cytotox: HeLa-ACE2
[3] = as above; format: cell-based, human; conditions: human, uninfected HeLa-ACE2 cells, reconfirmed hits; read-out: HeLa-ACE2 Uninf. cells CC50
[4] = tested on: HeLa-ACE2 cells; assay: Total cell count in the HeLa-ACE2 TOA assay; format: cell-based; conditions: Homo sapiens
From the text: Supplement 41467_2021_23328_MOESM3_ESM.xlsx, sheet "Table S1" | column: HeLa-ACE2 TOA cell count

[5] = cited from earlier work
[6] = tested on: SARS-CoV-2; assay: microbe, parasite or virus in culture; format: cell-based; conditions: for TOA: HeLa-ACE2, replicates n=1
[7] = tested on: SARS-CoV-2; assay: microbe, parasite or virus in culture; format: cell-based; conditions: for %infected: HeLa-ACE2, replicates n=1, n=2
[8] = in vitro; conditions: human
[9] = tested on: Calu-3 cells
[10] = tested on: HeLa-ACE2 cells; assay: cells; conditions: Homo sapiens, HeLa-ACE2, read-out: HeLa-ACE2 cell count EC50 GeoMean
[11] = tested on: SARS-CoV-2; assay: microbe, parasite or virus in culture; format: cell-based; conditions: for %infected: Calu-3, replicates n=1, n=2
[12] = tested on: Calu-3 cells; assay: cells; conditions: Homo sapiens

O=c1nc(NO)ccn1[C@@H]1O[C@H](CO)[C@@H](O)[C@H]1O [N-hydroxycytidine]
reduction in apical viral loads [1]: > 1 log | cytotox ([2]; concentration log[M] -4.40012, replicates n=1, n=2): -52.5894 and -47.3606 and -59.8571 and -45.9651 and -54.0657 and -40.7828 | cytotox ([2]; concentration log[M] -4.82681, replicates n=1, n=2): -38.4391 and -39.4796 and -38.1429 and -39.2039 and -43.0802 and -30.2326 | cytotox ([2]; concentration log[M] -5.30277, replicates n=1, n=2): -30.8534 and -12.119 and -16 and -17.6118 and -29.9408 and -19.0017 | cytotox ([2]; concentration log[M] -5.82681, replicates n=1, n=2): -4.449 and -6.9145 and -4 and -19.1385 and -7.754 and 0.2836 | cytotox ([2]; concentration log[M] -6.25414, replicates n=1, n=2): -16.849 and -13.6059 and -16.5714 and -13.1407 and -8.078 and -16.506 | cytotox ([2]; concentration log[M] -6.73049, replicates n=1, n=2): -10.2845 and 8.996 and -3.286 and -2.1265 and -9.908 and -9.472 | cytotox ([2]; concentration log[M] -7.25727, replicates n=1, n=2): 1.386 and -4.089 and -25.4286 and -12.8135 and -14.6473 and -10.7204 | cytotox ([2]; concentration log[M] -7.68403, replicates n=1, n=2): -8.534 and -5.279 and -6.286 and -2.672 and -11.8471 and 1.418 | cytotox ([2]; concentration log[M] -8.16052, replicates n=1, n=2): -5.325 and 4.535 and -3.571 and -9.869 and -22.4017 and -12.0817 | cytotox ([2]; concentration log[M] -8.59517, replicates): -2.261 and -3.197 and -3.429 and -6.707 and -1.077 and -11.9682 | HeLa-ACE2 uninfected cytotoxicity Sinf Average ([2]; curve plateau at infinite concentration): -100% | CC50 at 24 h [3]: > 37.5 µM | Emax ([4]; HeLa-ACE2, 10 h, read-out: HeLa-ACE2 TOA cell count Sinf Average): 100% | EC50 ([4]; HeLa-ACE2, read-out: HeLa-ACE2 TOA cell count EC50 GeoMean): > 9.59 µM | Approx. t1/2 ([5]; NHP, ref [45]): 1 h | Cmax ([5]; in vivo, po): 3.3 µM | TOA ([6]; concentration log[M] -5.01818): -88.6412 and -82.7703 and -80.6006 | TOA ([6]; concentration log[M] -5.54106): -32.1719 and -27.0134 and -25.6358 | TOA ([6]; concentration log[M] -6.01818): -19.1217 and -14.6661 and -4.943 | TOA ([6]; concentration log[M] -6.42366): 4.0678 and -1.902 and 3.9754 | TOA ([6]; concentration log[M] -6.90066): 9.161 and 4.654 and 6.517 | TOA ([6]; concentration log[M] -7.37799): 8.185 and 12.3603 and -5.097 | TOA ([6]; concentration log[M] -7.85511): -1.637 and 10.875 and -15.0843 | TOA ([6]; concentration log[M] -8.34746): 4.125 and 6.481 and 1.9398 | Emax ([6]; Severe acute respiratory syndrome coronavirus 2, HeLa-ACE2, 10 h, curve plateau at infinite concentration, read-out: HeLa-ACE2 TOA CoV-2 Sinf Average): 100% | EC50 ([6]; Severe acute respiratory syndrome coronavirus 2, HeLa-ACE2, read-out: HeLa-ACE2 TOA CoV-2 EC50 GeoMean): 4.06 µM | %infected ([7]; concentration log[M] -5.01818): -95.9068% and -95.703% and -94.602% and -97.3369% and -96.6026% and -97.2941% | %infected ([7]; concentration log[M] -5.54106): -65.3775% and -59.3515% and -63.9298% and -52.8807% and -12.9328% and -65.202% | %infected ([7]; concentration log[M] -6.01818): -30.1084% and -28.1968% and -26.2247% and 6.562% and 13.7937% and -28.207% | %infected ([7]; concentration log[M] -6.42366): -20.845% and -20.4031% and 6.3056% and 22.7531% and 23.3232% and -10.0334% | %infected ([7]; concentration log[M] -6.90066): -9.321% and -9.37% and 63.7122% and 19.7824% and -5.072% and -8.1% | %infected ([7]; concentration log[M] -7.37799): -5.474% and -4.047% and 10.6164% and 29.7413% and 17.9839% and -7.442% | %infected ([7]; concentration log[M] -7.85511): -5.151% and -0.8478% and 5.043% and 11.903% and -2.081% and 8.512% | %infected ([7]; concentration log[M] -8.34746): 2.419% and 1.409% and -2.874% and 18.1053% and 10.6681% and -1.579% | Emax ([7]; Severe acute respiratory syndrome coronavirus 2, HeLa-ACE2, 24 h, curve plateau at infinite concentration, read-out: HeLa-ACE2 CoV-2 Sinf Average): 100% | EC50 ([7]; Severe acute respiratory syndrome coronavirus 2, HeLa-ACE2, reconfirmed hits, read-out: HeLa-ACE2 SARS-CoV-2 EC50): 2.07 µM | CC50 at 48 h ([8]; Calu-3 Uninf. cells CC50 (µM)): > 29.9 µM | CC50 at 48 h ([8]; Calu-3 uninfected cytotoxicity CC50 GeoMean): 29.9 µM | uninfected Calu-3 CC50 [9]: 29.85 ×÷ 1 (n=2) μM | Calu-3 uninfected cytotoxicity Sinf Average ([9]; human, 48 h): -100% | EC50 [10]: > 9.59 µM | %infected ([11]; concentration log[M] -5.00096): -104.882% and -104.039% and -104.073% and -87.0522% and -95.3104% and -95.1991% | %infected ([11]; concentration log[M] -5.47808): -102.424% and -94.8216% and -96.2613% and -79.6455% and -88.2245% and -78.3438% | %infected ([11]; concentration log[M] -6.08014): -48.1883% and -55.6504% and -62.6482% and -43.1506% and -54.549% and -44.7088% | %infected ([11]; concentration log[M] -6.42922): -25.3967% and -10.7735% and -12.1745% and -21.3919% and -25.2933% and -26.102% | %infected ([11]; concentration log[M] -6.90623): 2.702% and -5.189% and -14.5454% and -5.7089% and 20.5633% and -23.5818% | %infected ([11]; concentration log[M] -7.50836): 7.0582% and -3.1% and 10.044% and -11.1778% and -10.264% and 16.3735% | %infected ([11]; concentration log[M] -7.85886): -6.015% and 34.2889% and -1.001% and -2.481% and -24.9588% and 14.4808% | %infected ([11]; concentration log[M] -8.33602): 34.4513% and -7.593% and -0.3699% and -1.01% and 8.564% and 15.1555% | Emax ([11]; Severe acute respiratory syndrome coronavirus 2, Calu-3, 48 h, curve plateau at infinite concentration, read-out: Calu-3 CoV-2 Sinf Average): 102% | EC50 ([11]; Severe acute respiratory syndrome coronavirus 2, Calu-3, reconfirmed hits, read-out: Calu-3 SARS-CoV-2 EC50): 0.803 µM | Emax ([12]; Calu-3, 48 h, read-out: Calu-3 cell count Sinf Average): 100% | EC50 ([12]; Calu-3, read-out: Calu-3 cell count EC50 GeoMean): 2.3 µM
